# Laboratory results from the supplement of paper PMC11208160.
# Assay: recombinant UMI read abundance after kanamycin selection (control-corrected) (log10(CPM+1)); higher = more efficient recombination; extreme values may be limits of the assay; sequences stand for … in AGTGCAGAGAAAATCGGCCAGTTTTCTCTGCCTGCAGTCCGCATGCCGTGGGACCCCTTGGGTTCTAACCTGTTGCCTAGATTTATGCAGCGGACTGCCTTTCTCCCAAAGTGATAAACCGG…AGGTTGGTTTCACT; site = the 11-nt donor
# In short: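 Counts of recombinant UMIs were reported as log10(CPM+1). Before that, they were converted to CPM, averaged over replicates and scaled using control-derived factors. They came from PCR across the donor–target junction after Escherichia coli carrying the pair library and target plasmid was plated on IPTG (0.07 mM) plus kanamycin, or unselected, in two replicates each.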
# 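Further: IS621 bridge recombinase in Escherichia coli cells against a fixed T5 target plasmid.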
row,Sequence,recombinant UMI read abundance (log10)
1,GATCCCTCATGGACCGGTTTTCCCGGTAATCCGTATTTGGC (site GATCCCTCTGC),0.839
2,GATCCGTCATGGACCGGTTTTCCCGGTAATCCGTATTTGCG (site GATCCGTCTCG),0.274
3,GATCCTACATGGACCGGTTTTCCCGGTAATCCGTATTTGCT (site GATCCTACTAG),0.00962
4,GATCCTTCATGGACCGGTTTTCCCGGTAATCCGTATTTGTC (site GATCCTTCTGA),0.252
5,GATCTCTCATGGACCGGTTTTCCCGGTAATCCGTATTTGAT (site GATCTCTCTAT),0.578
6,GATGACACATGGACCGGTTTTCCCGGTAATCCGTATTTGTC (site GATGACACTGA),1.18
7,GATGACTCATGGACCGGTTTTCCCGGTAATCCGTATTTGGT (site GATGACTCTAC),2.49
8,GATGCAGCATGGACCGGTTTTCCCGGTAATCCGTATTTGTA (site GATGCAGCTTA),1.62
9,GATGCAGCATGGACCGGTTTTCCCGGTAATCCGTATTTGTT (site GATGCAGCTAA),0.749
10,GATGTACCATGGACCGGTTTTCCCGGTAATCCGTATTTGGC (site GATGTACCTGC),0.247
11,GATTACTCATGGACCGGTTTTCCCGGTAATCCGTATTTGTC (site GATTACTCTGA),1.09
12,GATTATCCATGGACCGGTTTTCCCGGTAATCCGTATTTGCC (site GATTATCCTAG),0
13,GATTATCCATGGACCGGTTTTCCCGGTAATCCGTATTTGCC (site GATTATCCTCG),0
14,GATTATCCATGGACCGGTTTTCCCGGTAATCCGTATTTGCC (site GATTATCCTGG),0
15,GATTATCCATGGACCGGTTTTCCCGGTAATCCGTATTTGCC (site GATTATCCTTG),0
16,GATTCATCATGGACCGGTTTTCCCGGTAATCCGTATTTGCG (site GATTCATCTCG),1.2
17,GATTCGGCATGGACCGGTTTTCCCGGTAATCCGTATTTGAC (site GATTCGGCTGT),0.484
18,GATTGCGCATGGACCGGTTTTCCCGGTAATCCGTATTTGCG (site GATTGCGCTCG),0.805
19,GATTGGACATGGACCGGTTTTCCCGGTAATCCGTATTTGAT (site GATTGGACTAT),0.838

row,Sequence,recombinant UMI read abundance (log10)
1,GATTGGACATGGACCGGTTTTCCCGGTAATCCGTATTTGAT (site GATTGGACTCT),0.0264
2,GATTGGACATGGACCGGTTTTCCCGGTAATCCGTATTTGAT (site GATTGGACTGT),0
3,GATTGGACATGGACCGGTTTTCCCGGTAATCCGTATTTGAT (site GATTGGACTTT),0.0212
4,GATTGGACATGGACCGGTTTTCCCGGTAATCCGTATTTGCC (site GATTGGACTGA),0
5,GATTGGACATGGACCGGTTTTCCCGGTAATCCGTATTTGCC (site GATTGGACTGC),0
6,GATTGGACATGGACCGGTTTTCCCGGTAATCCGTATTTGCC (site GATTGGACTGG),2.68
7,GATTGGACATGGACCGGTTTTCCCGGTAATCCGTATTTGCC (site GATTGGACTGT),0
8,GATTGGACATGGACCGGTTTTCCCGGTAATCCGTATTTGTC (site GATTGGACTGA),0.657
9,GATTGGACATGGACCGGTTTTCCCGGTAATCCGTATTTGTC (site GATTGGACTGC),0
10,GATTGGACATGGACCGGTTTTCCCGGTAATCCGTATTTGTC (site GATTGGACTGG),0.913
11,GATTGGACATGGACCGGTTTTCCCGGTAATCCGTATTTGTC (site GATTGGACTGT),0.172
12,GATTTATCATGGACCGGTTTTCCCGGTAATCCGTATTTGTC (site GATTTATCTGA),0.525
13,GATTTCGCATGGACCGGTTTTCCCGGTAATCCGTATTTGGG (site GATTTCGCTCC),0.00434
14,GCAAACGCATGGACCGGTTTTCCCGGTAATCCGTATTTGTG (site GCAAACGCTCA),1.98
15,GCAACTACATGGACCGGTTTTCCCGGTAATCCGTATTTGTG (site GCAACTACTCA),1.17
16,GCAAGTGCATGGACCGGTTTTCCCGGTAATCCGTATTTGTC (site GCAAGTGCTGA),0
17,GCAATATCATGGACCGGTTTTCCCGGTAATCCGTATTTGCA (site ACAGTATCTTG),1.37
18,GCAATATCATGGACCGGTTTTCCCGGTAATCCGTATTTGCA (site GCAATATCTTG),1.75
19,GCAATTCCATGGACCGGTTTTCCCGGTAATCCGTATTTGAG (site GCAATTCCTCT),0.651

row,Sequence,recombinant UMI read abundance (log10)
1,GCAATTGCATGGACCGGTTTTCCCGGTAATCCGTATTTGCC (site GCAATTGCTGG),0
2,GCAATTTCATGGACCGGTTTTCCCGGTAATCCGTATTTGTA (site GCAATTTCTTA),2.26
3,GCACATGCATGGACCGGTTTTCCCGGTAATCCGTATTTGGA (site GCACATGCTTC),1.05
4,GCACCTTCATGGACCGGTTTTCCCGGTAATCCGTATTTGTT (site GCACCTTCTAA),1.09
5,GCACGATCATGGACCGGTTTTCCCGGTAATCCGTATTTGTA (site GCACGATCTTA),2.74
6,GCACTGCCATGGACCGGTTTTCCCGGTAATCCGTATTTGCT (site GCACTGCCTAG),1.41
7,GCACTTCCATGGACCGGTTTTCCCGGTAATCCGTATTTGTT (site GCACTTCCTAA),0.561
8,GCAGAAACATGGACCGGTTTTCCCGGTAATCCGTATTTGGC (site GCAGAAACTGC),2.87
9,GCAGTAGCATGGACCGGTTTTCCCGGTAATCCGTATTTGCC (site GCAGTAGCTGG),0.831
10,GCAGTGGCATGGACCGGTTTTCCCGGTAATCCGTATTTGGT (site GAAGTGGCTAC),0.0767
11,GCAGTGGCATGGACCGGTTTTCCCGGTAATCCGTATTTGGT (site GCAGTGGCTAC),0.668
12,GCAGTGGCATGGACCGGTTTTCCCGGTAATCCGTATTTGGT (site GGAGTGGCTAC),0.276
13,GCAGTGGCATGGACCGGTTTTCCCGGTAATCCGTATTTGGT (site GTAGTGGCTAC),0.0239
14,GCATACCCATGGACCGGTTTTCCCGGTAATCCGTATTTGAC (site GCATACCCTGT),1.04
15,GCATCAGCATGGACCGGTTTTCCCGGTAATCCGTATTTGTG (site GCATCAGCTCA),1.49
16,GCATGGGCATGGACCGGTTTTCCCGGTAATCCGTATTTGAG (site GCATGGGCTCT),1.33
17,GCATTATCATGGACCGGTTTTCCCGGTAATCCGTATTTGGC (site GCATTATCTGC),2.82
18,GCCAAGCCATGGACCGGTTTTCCCGGTAATCCGTATTTGTA (site GCCAAGCCTTA),1.69
19,GCCAAGCCATGGACCGGTTTTCCCGGTAATCCGTATTTGTA (site GCCACGCCTTA),0.00534
